# Results as given in publication PMC9315535 (Microorganisms, 2022).
# Key:
# YFV NS2B/NS3 protease = conditions: cited from earlier work
# ZIKV NS2B/NS3 protease = conditions: Targeted virus ZIKV; cited from earlier work
# CHIKV nsP2 protease = tested on: CHIKV nsP2 protease; design: method as in PMID 33661906; conditions: Targeted virus CHIKV; cited from earlier work
# ZIKV NS2B/NS3pro [1] = target: T1, ZIKV NS2B/NS3pro (Zika virus, UniProt A0A140DLX4); assay: biochemical; format: binding
# ZIKV NS2B/NS3pro [2] = target: T1, ZIKV NS2B/NS3pro; assay: Thermal unfolding followed by Trp fluorescence, ZIKV protease; format: binding; conditions: protease alone 43 °C
# [3] = tested on: serine protease of the human cytomegalovirus (HCMV); design: method as in PMID 8639546; conditions: cited from earlier work
# [4] = ref https://www.drugbank.ca/drugs/DB00140; cited from earlier work
# [5] = tested on: Chikungunya virus (strain ECSA); assay: Virucidal / time-of-drug addition plaque-forming assay, CHIKV; format: cell-based; conditions: 50 µM, virus and compound incubated 1 h at RT, Vero cells
# CHIKV nsP2pro [6] = target: T2, CHIKV nsP2pro (Chikungunya virus, UniProt Q8JUX6); assay: biochemical
# YFV NS2B/NS3pro [7] = target: T3, YFV NS2B/NS3pro (Yellow fever virus, UniProt Q1X881); assay: biochemical
# YFV NS2B/NS3pro [8] = target: T3, YFV NS2B/NS3pro; assay: biochemical; format: binding
# in vitro = conditions: Cercopithecus aethiops (African green monkey)
# CHIKV nsP2pro [9] = target: T2, CHIKV nsP2pro; assay: biochemical; format: binding
# CHIKV nsP2pro [10] = target: T2, CHIKV nsP2pro; assay: Thermal unfolding followed by Trp fluorescence, CHIKV protease; format: binding
# ZIKV NS2B/NS3pro [11] = target: T1, ZIKV NS2B/NS3pro; assay: biochemical
# [12] = tested on: yellow fever virus (vaccinal strain); format: cell-based
# YFV NS2B/NS3pro [13] = target: T3, YFV NS2B/NS3pro; format: binding
# [14] = tested on: Zika virus (strain ZIKVBR); assay: Virucidal / time-of-drug addition plaque-forming assay, ZIKV; format: cell-based; conditions: 50 µM, Vero cells
# [15] = read-out: Inhibition of protease activity, primary test
smiles,measurement,setting,value
COc1ccc([C@@H]2CC(=O)c3c(O)cc(O)cc3O2)cc1O [Hesperetin],IC50,YFV NS2B/NS3 protease,2 µM
same,IC50,ZIKV NS2B/NS3 protease,12.6 µM
same,IC50,CHIKV nsP2 protease,2.5 µM
COc1ccc2c(O[C@@H]3C[C@H]4C(=O)N[C@]5(C(=O)NS(=O)(=O)C6CC6)C[C@H]5/C=C\CCCCN(C)C(=O)[C@@H]4C3)cc(-c3nc(C(C)C)cs3)nc2c1C [Simeprevir],IC50,ZIKV NS2B/NS3 protease,2.6 µM
Cc1cc2nc3c(=O)[nH]c(=O)nc-3n(C[C@H](O)[C@H](O)[C@H](O)CO)c2cc1C [riboflavin],Excitation Shift,ZIKV NS2B/NS3pro [1],blue edge excitation shift
same,Kd,ZIKV NS2B/NS3pro [1]; KD ± STD,25.1 µM
same,Tm of protease-riboflavin complex,ZIKV NS2B/NS3pro [2],51 °C
same,IC50,[3],0.3 µM
same,Inhibition Mode,[3],competitive
same,LogP,[4],−1.5
same,"Decrease of CHIKV replication, virucidal assay",[5],44.35%
same,Effect on cell viability,Vero cells,does not affect cell viability
same,IC50,CHIKV nsP2pro [6],0.093 ± 0.0057 µM
same,Inhibition Mode,CHIKV nsP2pro [6],competitive
same,LE (ligand efficiency),CHIKV nsP2pro [6],0.36
same,Required concentration to inhibit protease (100%),CHIKV nsP2pro [6],5 µM
same,inhibition at 1 µM,CHIKV nsP2pro [6]; [15],~85%
same,inhibition at 20 µM,CHIKV nsP2pro [6]; [15],100%
same,Final concentration to inhibit 100% of protease,YFV NS2B/NS3pro [7],200 µM
same,IC50,YFV NS2B/NS3pro [7],45.7 ± 2.9 µM
same,Inhibition Mode,YFV NS2B/NS3pro [7],competitive
same,inhibition at 20 µM,YFV NS2B/NS3pro [7]; [15],30%
same,Excitation Shift,YFV NS2B/NS3pro [8],blue edge excitation shift
same,Kd,YFV NS2B/NS3pro [8],18.2 ± 3.9 µM
same,CC50,in vitro,72.3 µM
same,Excitation Shift,CHIKV nsP2pro [9],blue edge excitation shift
same,Kd,CHIKV nsP2pro [9],2.8 ± 0.7 µM
same,Tm of protease-riboflavin complex,CHIKV nsP2pro [10]; protease alone 47 °C,52 °C
same,ΔTm,"CHIKV nsP2pro [10]; protein 10 µM, riboflavin 75 µM",5 °C
same,Inhibition Mode,ZIKV NS2B/NS3pro [11],competitive
same,IC100,"ZIKV NS2B/NS3pro [11]; 1 h, read-out: Final concentration to inhibit 100% of protease",220 µM
same,IC50,ZIKV NS2B/NS3pro [11]; IC50 ± STD,79.4 ± 5 µM
same,IC50,ZIKV NS2B/NS3pro [11]; pIC50,79.4 µM
same,inhibition at 20 µM,ZIKV NS2B/NS3pro [11]; [15],10%
same,Prevention of virus entry (virucidal assay),[12],not observed
same,Tm of protease-riboflavin complex,YFV NS2B/NS3pro [13],51 °C
same,ΔTm,YFV NS2B/NS3pro [13],4 °C
same,Prevention of virus entry (virucidal assay),[14],not observed
